Measurements: PubChem BioAssay (NCI)
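In this assay, cells in 96-well plates receive the compound at five concentrations for 48 hours. Endpoints are linearly interpolated between the surrounding concentrations. TGI is the concentration that stops growth completely.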

Tests used:
Assay in all cases: NCI anticancer screen, dose series, 48 h
A498 renal = tested on: A498 renal
MDA-MB-231 breast = tested on: MDA-MB-231 breast
MOLT-4 leukemia = tested on: MOLT-4 leukemia
OVCAR-4 ovarian = tested on: OVCAR-4 ovarian
LOX IMVI melanoma = tested on: LOX IMVI melanoma
ACHN renal = tested on: ACHN renal
RPMI-8226 leukemia = tested on: RPMI-8226 leukemia
NCI-H226 lung = tested on: NCI-H226 lung
UACC-257 melanoma = tested on: UACC-257 melanoma
NCI-H23 lung = tested on: NCI-H23 lung
TK-10 renal = tested on: TK-10 renal
COLO 205 colon = tested on: COLO 205 colon
SF-268 CNS = tested on: SF-268 CNS
786-0 renal = tested on: 786-0 renal
HS 578T breast = tested on: HS 578T breast
HL-60(TB) leukemia = tested on: HL-60(TB) leukemia
HCC-2998 colon = tested on: HCC-2998 colon
OVCAR-5 ovarian = tested on: OVCAR-5 ovarian
EKVX NSCLC = tested on: EKVX NSCLC
SK-MEL-5 melanoma = tested on: SK-MEL-5 melanoma
HCT-116 colon = tested on: HCT-116 colon
PC-3 prostate = tested on: PC-3 prostate
UO-31 renal = tested on: UO-31 renal
BT-549 breast = tested on: BT-549 breast
OVCAR-3 ovarian = tested on: OVCAR-3 ovarian
CAKI-1 renal = tested on: CAKI-1 renal
SF-539 CNS = tested on: SF-539 CNS
MDA-N = tested on: MDA-N
K-562 leukemia = tested on: K-562 leukemia
OVCAR-8 ovarian = tested on: OVCAR-8 ovarian
U251 CNS = tested on: U251 CNS
DU-145 prostate = tested on: DU-145 prostate
RXF 393 renal = tested on: RXF 393 renal
SN12C renal = tested on: SN12C renal
SNB-19 CNS = tested on: SNB-19 CNS
HOP-92 NSCLC = tested on: HOP-92 NSCLC
UACC-62 melanoma = tested on: UACC-62 melanoma
IGROV1 ovarian = tested on: IGROV1 ovarian
KM12 colon = tested on: KM12 colon
SK-MEL-28 melanoma = tested on: SK-MEL-28 melanoma
SF-295 CNS = tested on: SF-295 CNS
M14 melanoma = tested on: M14 melanoma
CCRF-CEM leukemia = tested on: CCRF-CEM leukemia
MALME-3M melanoma = tested on: MALME-3M melanoma
MCF7 breast = tested on: MCF7 breast
A549 NSCLC = tested on: A549 NSCLC
SK-MEL-2 melanoma = tested on: SK-MEL-2 melanoma
NCI/ADR-RES ovarian = tested on: NCI/ADR-RES ovarian
HT29 colon = tested on: HT29 colon
SK-OV-3 ovarian = tested on: SK-OV-3 ovarian
MDA-MB-435 = tested on: MDA-MB-435
HOP-62 NSCLC = tested on: HOP-62 NSCLC
SW-620 colon = tested on: SW-620 colon
T-47D breast = tested on: T-47D breast
NCI-H460 lung = tested on: NCI-H460 lung
HCT-15 colon = tested on: HCT-15 colon
SNB-75 CNS = tested on: SNB-75 CNS
NCI-H522 lung = tested on: NCI-H522 lung
SR leukemia = tested on: SR leukemia

Measured: TGI

COc1ccc2c(c1)[nH]c1c3ccc(OC)cc3oc(=O)c21
not listed: NCI-H522 lung | SR leukemia
> 100 µM: all other assays above

Cc1ccc(C)c2c1n1c(=O)n(C)c(=O)n21
not listed: MOLT-4 leukemia | K-562 leukemia | HOP-62 NSCLC | SR leukemia
> 100 µM: all other assays above

O=C(CN1CCN(c2ccccn2)CC1)N1CCCn2c1nc1ccccc1c2=O
not listed: RXF 393 renal | SK-MEL-28 melanoma
> 100 µM: all other assays above
